Assay results as given in PubChem BioAssay (NCI).
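How tested: cells in 96-well plates exposed to compound for 48 hours at five concentrations. The concentration for 50% growth inhibition is given as GI50. The concentration for full growth arrest is given as TGI.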

These compounds were tested on MDA-MB-468 breast (assay: DTP human tumour cell line panel, 48 h).

Going from `COCCn1cc(-c2nc(-c3cc4cccnc4[nH]3)cs2)c2cc(OC)ccc21` to `COc1ccc2ncnc(Nc3ccc(OCc4ccccc4)cc3)c2c1`, the GI50 rises from 0.0317 µM to 2.77 µM (87-fold).

First: COc1cc(-c2nc3sccn3c2-c2ccnc(NCCNS(=O)(=O)c3ccc(F)cc3)n2)ccc1F
Second: COc1cc(-c2nn(-c3cccc(NC(=O)c4ccccc4)c3)cc2-c2ccncc2)ccc1Cl
The GI50 of the first is 7.8-fold higher: 2.72 µM for the first, 0.349 µM for the second.

First: Cc1ccc(-c2nc(N3CCNCC3)c3oc(-c4ccc(C)cc4)nc3n2)cc1
Second: Cc1ccc(NC2=C3CCCCC3OC2=O)cc1 (stereo unspecified)
The GI50 of the first is 6.7-fold lower: 3.29 µM for the first, 21.9 µM for the second.

Going from `CC1(C)[C@@H](NOCCCN)CC[C@]2(C)[C@H]3C(=O)C=C4[C@@H]5C[C@](C)(C(=O)O)CC[C@]5(C)CC[C@@]4(C)[C@]3(C)CC[C@@H]12` to `COC(=O)[C@]12CC[C@@H](C)[C@H](C)[C@@H]1C1=CC[C@@H]3[C@@]4(C)C[C@@H](O)[C@H](O)[C@@](C)(CO)[C@@H]4[C@H](O)C[C@@]3(C)[C@]1(C)CC2`, the GI50 rises from 2.36 µM to 10.5 µM (4.4-fold).

First: O=C1OCC2=C1C(c1cccc(Br)c1)c1cc3c(cc1N2CCO)OCCO3 (stereo unspecified)
Second: COc1ccc(C2c3cc4c(cc3OC3(OC)COC(=O)C23)OCO4)c(OC)c1 (stereo unspecified)
The GI50 of the first is 360-fold lower: 0.0258 µM for the first, 9.24 µM for the second.

First: N=C(N)c1ccc(OCCCCCCCCCCOc2ccc(C(=N)N)cc2)cc1
Second: COc1ccccc1NC(=O)c1cc2cc(Br)ccc2cc1O
The GI50 of the first is 6.7-fold lower: 0.414 µM for the first, 2.79 µM for the second.

Going from `CC(C)[C@@H]1NC(=O)[C@]2(C)CSC(=N2)c2ccnc(c2)CNC(=O)C[C@@H](/C=C/CCS)OC1=O` to `O=C1NC(=NCc2ccccc2)S/C1=C\c1ccc2ncccc2c1`, the GI50 rises from 0.569 µM to over 16.2 µM.

Compared with `c1ccc(Nc2ncc(-c3ccccc3)o2)cc1`, `NC(=S)N/N=C\c1nccc2c(C(F)(F)F)cccc12` is 42-fold lower in GI50: 8.41 µM for the first, 0.199 µM for the second.

`CN1CCN(C(=O)COc2ccc(C34CC5CC(CC(C5)C3)C4)cc2)CC1` and `Cc1ccc(S(=O)(=O)N2C3C=CC(C3)[C@@H]2C(Cl)(Cl)Cl)cc1` (stereo partly specified) are within 1.5-fold of each other in GI50: 9.12 µM for the first, 6.32 µM for the second.

Compared with `O=C(Nc1nn2c(-c3cc(C(F)(F)F)cc(C(F)(F)F)c3)nnc2s1)C1CCCC1`, `OC(c1cc(C(F)(F)F)nc2c(C(F)(F)F)cccc12)C1CCCCN1` (stereo unspecified) is 4.6-fold higher in GI50: 0.356 µM for the first, 1.63 µM for the second.

Compared with `Cc1cc(Nc2ccc(C)c(Cl)c2)n2nc(C(F)(F)F)nc2n1`, `NC(=S)N/N=C1\c2cc(Cl)ccc2-c2c1cc(Cl)cc2[N+](=O)[O-]` is 6.1-fold lower in GI50: 18.7 µM for the first, 3.07 µM for the second.

First: NCCNCCNCCN
Second: CCN1C(=O)N(CC)C2SC(N/N=C/C=C/c3ccccc3OC)=NC21 (stereo unspecified)
The GI50 of the first is higher: over 100 µM for the first, 0.326 µM for the second.

`CC[C@@H](c1ccc(O)c(O)c1)[C@@H](CC)c1ccc(O)c(O)c1` and `CC(C)(C)[Si](C)(C)OC1[C@@H](O[Si](C)(C)C(C)(C)C)[C@@H](CNC(=O)NC(=O)C(F)(F)F)O[C@H]1n1cnc2c(NC(=O)Nc3ccccc3)ncnc21` (stereo partly specified) are within 1.5-fold of each other in GI50: 2.09 µM for the first, 2.18 µM for the second.

Compared with `COCCn1cc(-c2nc(-c3cc4cccnc4[nH]3)cs2)c2cc(OC)ccc21`, `COc1ccc2ncnc(Nc3ccc(OCc4ccccc4)cc3)c2c1` is 47-fold higher in TGI: 0.192 µM for the first, 9.08 µM for the second.

Compared with `COc1cc(-c2nc3sccn3c2-c2ccnc(NCCNS(=O)(=O)c3ccc(F)cc3)n2)ccc1F`, `COc1cc(-c2nn(-c3cccc(NC(=O)c4ccccc4)c3)cc2-c2ccncc2)ccc1Cl` is lower in TGI: over 100 µM for the first, 3.42 µM for the second.

`Cc1ccc(-c2nc(N3CCNCC3)c3oc(-c4ccc(C)cc4)nc3n2)cc1` and `Cc1ccc(NC2=C3CCCCC3OC2=O)cc1` (stereo unspecified) cannot be ordered by TGI: over 21.8 µM for the first, over 100 µM for the second.

First: CC1(C)[C@@H](NOCCCN)CC[C@]2(C)[C@H]3C(=O)C=C4[C@@H]5C[C@](C)(C(=O)O)CC[C@]5(C)CC[C@@]4(C)[C@]3(C)CC[C@@H]12
Second: COC(=O)[C@]12CC[C@@H](C)[C@H](C)[C@@H]1C1=CC[C@@H]3[C@@]4(C)C[C@@H](O)[C@H](O)[C@@](C)(CO)[C@@H]4[C@H](O)C[C@@]3(C)[C@]1(C)CC2
The TGI of the first is 4.6-fold lower: 5.45 µM for the first, 24.8 µM for the second.

Going from `O=C1OCC2=C1C(c1cccc(Br)c1)c1cc3c(cc1N2CCO)OCCO3` (stereo unspecified) to `COc1ccc(C2c3cc4c(cc3OC3(OC)COC(=O)C23)OCO4)c(OC)c1` (stereo unspecified), the TGI rises from 0.181 µM to over 100 µM.

Going from `N=C(N)c1ccc(OCCCCCCCCCCOc2ccc(C(=N)N)cc2)cc1` to `COc1ccccc1NC(=O)c1cc2cc(Br)ccc2cc1O`, the TGI rises from 1.8 µM to 7.87 µM (4.4-fold).

`c1ccc(Nc2ncc(-c3ccccc3)o2)cc1` and `O=C1NC(=NCc2ccccc2)S/C1=C\c1ccc2ncccc2c1` cannot be ordered by TGI: over 25 µM for the first, over 25 µM for the second.

Compared with `NC(=S)N/N=C\c1nccc2c(C(F)(F)F)cccc12`, `OC(c1cc(C(F)(F)F)nc2c(C(F)(F)F)cccc12)C1CCCCN1` (stereo unspecified) is 5.5-fold higher in TGI: 0.612 µM for the first, 3.37 µM for the second.

`CN1CCN(C(=O)COc2ccc(C34CC5CC(CC(C5)C3)C4)cc2)CC1` and `Cc1ccc(S(=O)(=O)N2C3C=CC(C3)[C@@H]2C(Cl)(Cl)Cl)cc1` (stereo partly specified) are within 1.5-fold of each other in TGI: 23.1 µM for the first, 33.1 µM for the second.

Compared with `O=C(Nc1nn2c(-c3cc(C(F)(F)F)cc(C(F)(F)F)c3)nnc2s1)C1CCCC1`, `Cc1cc(Nc2ccc(C)c(Cl)c2)n2nc(C(F)(F)F)nc2n1` is 14-fold higher in TGI: 4.35 µM for the first, 61.6 µM for the second.

Compared with `NCCNCCNCCN`, `CCN1C(=O)N(CC)C2SC(N/N=C/C=C/c3ccccc3OC)=NC21` (stereo unspecified) is lower in TGI: over 100 µM for the first, 48.9 µM for the second.

First: CC[C@@H](c1ccc(O)c(O)c1)[C@@H](CC)c1ccc(O)c(O)c1
Second: NC(=S)N/N=C1\c2cc(Cl)ccc2-c2c1cc(Cl)cc2[N+](=O)[O-]
The TGI of the first is 1.6-fold lower: 5.51 µM for the first, 9.03 µM for the second.

For `CC(C)(C)[Si](C)(C)OC1[C@@H](O[Si](C)(C)C(C)(C)C)[C@@H](CNC(=O)NC(=O)C(F)(F)F)O[C@H]1n1cnc2c(NC(=O)Nc3ccccc3)ncnc21` (stereo partly specified), the TGI was 9.16 µM.
